Results: patent publication US20030044875A1, “Substrate for PP2C” (Schering AG, priority 2001, published 2003)
“Also recorded” adds a separate entry of the source.

Columns and labels:
PP2C = conditions: cited from earlier work
PP2Cβ = target: T1, PP2Cβ (Bos taurus, UniProt O62830); assay: Dephosphorylation of phospho-BAD by PP2Cβ, Mg2+-dependence; type: biochemical, bovine
T1 construct: inferred from the Ni-NTA purification; made in house; host or cells: E. coli
T1 sequence (O62830 1-484): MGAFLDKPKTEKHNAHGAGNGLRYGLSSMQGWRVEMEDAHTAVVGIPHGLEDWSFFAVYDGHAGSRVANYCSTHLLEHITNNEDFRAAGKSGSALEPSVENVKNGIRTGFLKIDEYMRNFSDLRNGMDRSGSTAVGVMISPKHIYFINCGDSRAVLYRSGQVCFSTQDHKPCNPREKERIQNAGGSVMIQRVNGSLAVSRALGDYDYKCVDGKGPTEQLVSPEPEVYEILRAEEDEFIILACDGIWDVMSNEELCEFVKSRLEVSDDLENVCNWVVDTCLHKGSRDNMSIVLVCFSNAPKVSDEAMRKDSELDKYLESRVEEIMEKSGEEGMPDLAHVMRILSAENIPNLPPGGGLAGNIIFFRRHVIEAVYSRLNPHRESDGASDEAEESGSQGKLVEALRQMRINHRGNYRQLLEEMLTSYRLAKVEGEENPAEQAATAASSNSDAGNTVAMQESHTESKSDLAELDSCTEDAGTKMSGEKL
Experimental: Dephosphorylation of phospho-BAD by PP2C is assayed in vitro using recombinant BAD (Lizcano, J. M., Morrice, N. and Cohen, P. (2000) Regulation of Bad by cAMP-dependent protein kinase is mediated via phosphorylation of a novel site, Ser^155. Biochem. J. Vol: 349, 547-557) kindly provided by Sir Philip Cohen, Dundee, UK. cDNA encoding PP2Cβ from bovine brain was expressed in E. Coli and purified using Ni-NTA-Sepharose. (J. Neurosci. Res. 51, 328-338 (1998) Protein phosphatase type-2C isozymes present in vertebrate retinae: purification, characterization, and localization in photoreceptors.)
Incubations were carried out for 30 min at 37° C. The reaction mixture (12 μl) contained 12 μg BAD (GST-fusion protein) (Lizcano et al. (2000) Biochem. J. 349, 547-557), 0.55 μg PKA (Sigma), 1 μM ATP, 15 μCi [γ-^32P]ATP, 5 mM MgCl2 and 25 mM Tris/HCl pH 7.5. After incubation at 37° C. for 30 min, hot and cold ATP were removed by centrisep centrifugation columns. […]
Dephosphorylation of [^32P]BAD depends on the time of incubating PP2Cβ together with the substrate phospho-BAD which is cleaved to give phosphate and BAD. The concentration of [^32P]BAD is measured in this assay, therefore intensive spots on the X-ray sensitive film represent high concentrations of [^32P]BAD, in other words low activity of the enzyme PP2Cβ.

Row | Compound | Sensitivity of PP2C activity to inhibitor (PP2C) | Effect of Mg2+ ions on enzymatic activity of PP2C (dephosphorylation of BAD) (PP2Cβ)
1 | C=C1[C@@H](O)[C@@H]2O[C@]3(CC[C@H](/C=C/[C@@H](C)[C@@H]4CC(C)=C[C@@]5(O[C@H](C[C@@](C)(O)C(=O)O)CC[C@H]5O)O4)O3)CC[C@H]2O[C@@H]1[C@@H](O)C[C@H](C)[C@H]1O[C@@]2(CCCCO2)CC[C@H]1C [okadaic acid] | not sensitive | 
2 | [Mg+2] [Mg^2+] |  | requires the presence of Mg^2+-ions; also recorded: increases the enzymatic activity
